US20040170622A1, “Methods and compositions for modulating XBP-1 activity” (President and Fellows of Harvard College, priority 2002, published 2004)
Entries after “also recorded” stand apart in the source; their conditions may differ. Where a SMILES comes first, the peptide text is derived from it. The star is where a group is joined. Cbz = O=C(OCc1ccccc1)*

Tests used:
[1] = tested on: UPR target genes; test: UPR gene and XBP-1 protein expression in MEF cells (gene array, Northern, Western blot); format: cell-based, mouse; details: for induction of ERdj4 (XBP-1-dependent UPR target gene): XBP-1-deficient MEFs; for XBP-1u and XBP-1s protein induction: wt MEFs, 10 μM MG-132 or 10 μg/ml Tm, 6 hours
Description: (A) XBP-1 locus in wild type and XBP-1^−/− MEF cells. Splicing of the mutant XBP-1 mRNA in XBP-1^−/− cells is shown. * represent termination codons. (B) Wild type and XBP-1^−/− MEF cells were untreated or treated with 10 μg/ml Tm for 6 hours. […] (C) Wild type and XBP-1^−/− MEF cells were treated with 10 μM MG-132 or 10 μg/ml Tm for 6 hours. XBP-1u and XBP-1s proteins were detected by Western blot analysis with anti-XBP-1 antibody.
293T and MEF cells derived from wild type and XBP-1^−/− embryos were cultured in DMEM supplemented with 10% fetal calf serum (Hyclone Laboratories). MEF-tet-off cells (Clontech) were maintained in the same media with the addition of 100 μg/ml G418 and 1 μg/ml doxycycline. XBP-1s inducible cells were obtained by transfecting MEF-tet-off cells with the TREhyg-XBP-1s plasmid and then selecting in the presence of 400 μg/ml hygromycin B. Several clones were tested for doxycycline-dependent XBP-1s expression, and one was selected for further experiments. MEF-dn-XBP cells were generated by transfecting MEF-tet-off cells with the TREhyg-dn-XBP plasmid. […] ATF6α and β knockdown MEF cells were generated by cotransfecting wild type MEF cells with U6-iATF6α and β and cmv-puromycin or transducing cells with retroviruses containing each RNAi vector.
Total RNA was isolated from MEF cells with TRIZOL reagent (Invitrogen, Carlsbad, Calif.). cDNA synthesis, hybridization and laser scanning of the array were carried out at the Gene Array Technology Center (Brigham and Women's Hospital, Boston, Mass.) with MG-U74A GeneChips which had 6,000 functionally characterized sequences and 6,000 ESTs from the UniGene database (Affymetrix, Santa Clara, Calif.) as recommended by Affymetrix. Data analysis was performed using Affymetrix GeneChip 3.1 software under default parameter setting.
Total RNA was prepared by using Trizol reagent, electrophoresed on 1.2% agarose, 6% formaldehyde gels and then transferred onto Genescreen Plus membrane (NEN). ^32P-radiolabeled probes were prepared with the RediPrime II labeling system (Amersham-Pharmacia). Template DNAs for the probes were cut out by using appropriate restriction enzymes from the cDNA-containing plasmid (XBP-1, 15-830 of the murine coding region) or EST clones from ATCC (CHOP, IMAGE:5863055; ERdj4, IMAGE: 1920927; p58^IPK probe A, IMAGE:9001935; p58^IPK probe B, IMAGE:2646147; ATF6α, IMAGE:4503659; MGP, IMAGE:4990627; EDEM, IMAGE:5324660; PDI-P5, IMAGE:2645183; RAMP4, IMAGE:3489738). Grp94 and Grp78 probes were kindly provided by R. J. Kaufman, Univ. of Michigan and the HEDJ probe the kind gift of L. Hendershot, St. Jude Children's Research Hospital, Memphis. Probe hybridization was performed with Ultrahyb buffer as recommended by the manufacturer (Ambion).
48 hours after transfection, 293T cells were washed twice with cold PBS and lysed in 1 ml lysis buffer (10 mM Tris pH7.4, 150 mM NaCl, 1% Triton X-100, 1 mM EDTA) containing a protease inhibitor cocktail tablet (Roche). Lysates were precleared by using protein A-agarose beads (Roche) for 1 hour and incubated with agarose conjugated anti-HA antibody (Santa Cruz) for overnight. The agarose beads were washed five times with the lysis buffer and resuspended in SDS-PAGE sample buffer. MEF cells were lysed in RIPA buffer (50 mM Tris pH 7.4, 150 mM NaCl, 1 mM EDTA, 1% Triton X-100, 1% sodium deoxycholate, 0.1% SDS). Lysates and immunoprecipitates were subjected to SDS-PAGE and transferred to Hybond P membrane (Amersham-Pharmacia).

[2] = tested on: PERK; test: PERK autophosphorylation in J558 cells; format: cell-based
[3] = tested on: XBP-1s; test: UPRE-luciferase reporter in NIH3T3 cells; format: cell-based
Description: (A) Ubiquitination of XBP-1 in HeLa cells were cotransfected with XBP-1u and His-tagged ubiquitin expression plasmids. (B) Degradation rates of XBP-1u and XBP-1s proteins were determined by pulse labeling J558 cells with ^35S Met/Cys for 1 hr and chasing for the indicated times. (C) Effect of XBP-1u on XBP-1s dependent UPRE activation in PI-treated NIH3T3 cells with 8-fold excess of XBP-1u plasmids. Transfected cells were treated with MG-132 for 16 hrs before harvesting for luciferase assays. Values represent fold induction of activity compared to the reporter alone after normalizing to Renilla. (D) Generation and expression of lysine to arginine XBP-1u mutants. Two or three lysine residues in the C-terminus of XBP-1u were replaced by arginine to generate XBP-1uKK (235, 252) and XBP-1uKKK(146, 235, 252) by site-directed mutagenesis. dn-XBP contains the N-terminal 188 aa of XBP-1u. Western blot analysis was performed with NIH3T3 extracts transfected with the indicated plasmids. E) Inhibition of XBP-1 dependent activation of the UPRE reporter in NIH 3T3 cells by XBP-1u lysine to arginine mutants.
Two or three lysine residues in the C-terminus of XBP-1u were replaced by arginines to generate XBP-1uKK (K235R, K252R) and XBP-1uKKK(K146R, K235R, K252R) by site-directed mutagenesis (Iwakoshi et al.2003 Nature Immunology 4: 321-329). dn-XBP contains the N-terminal 188 aa of XBP-1u. NTH3T3 cells were transfected by using the Lipofectamine2000 reagent as recommended by the manufacturer (Invitrogen, Carlsbad, Calif.) with indicated amount of UPRE (UPR element) reporter (Wang et al. 2000 J Biol Chem 275: 27013-27020) and various effector plasmids. Cells were treated for 16 hours before harvest in certain experiments. Cells were lysed in passive lysis buffer for dual luciferase assays according to the manufacturer's protocol (Promega, Madison, Wis.).

Molecule: CC(C)C[C@@H](C=O)NC(=O)[C@H](CC(C)C)NC(=O)[C@H](CC(C)C)NC(=O)OCc1ccccc1 [MG-132] (Cbz-Leu-Leu-Leu-aldehyde)
- induction of ERdj4 (XBP-1-dependent UPR target gene) [1]: normal induction of ERdj4
- XBP-1u and XBP-1s protein induction [1]: induced both XBP-1u and XBP-1s proteins
- effect on Tm-induced autophosphorylation of PERK [2]: a decrease in the autophosphorylation of PERK; also recorded: very marked decrease in the autophosphorylation of PERK

Molecule: tunicamycin [Tm]
- induction of ERdj4 (XBP-1-dependent UPR target gene) [1]: not induced at all
- genes whose expression increased, of the total pool of 12,000 genes ([1]; wt MEF cells, Tm 6 hours): 2.8%
- XBP-1u and XBP-1s protein induction [1]: induced both XBP-1u and XBP-1s proteins
- amount of phosphorylated PERK [2]: led to an increase in the amount of phosphorylated PERK

B1: dn-XBP: dominant negative XBP-1 containing the N-terminal 188 aa, lacking transactivation domain, retaining leucine zipper (protein)
chain: MVVVAAAPSAATAAPKVLLLSGQPASGGRALPLMVPGPRAAGSEASGTPQARKRQRLTHLSPEEKALRRKLKNRVAAQTARDRKKARMSELEQQVVDLEEENHKLQLENQLLREKTHGLVVENQELRTRLGMDTLDPDEVPEVEAKGSGVRLVAGSAESAAGAGPVVTSPEHLPMDSDTVASSDSESD
- effect on transactivation of UPRE reporter by XBP-1s ([3]; in the absence of PIs): inhibits XBP-1s -induced transactivation very efficiently

B2: XBP-1s: vector encoding only the spliced form of murine XBP-1, a protein of 371 aa (protein)
chain: MVVVAAAPSAATAAPKVLLLSGQPASGGRALPLMVPGPRAAGSEASGTPQARKRQRLTHLSPEEKALRRKLKNRVAAQTARDRKKARMSELEQQVVDLEEENHKLQLENQLLREKTHGLVVENQELRTRLGMDTLDPDEVPEVEAKGSGVRLVAGSAESAAGAGPVVTSPEHLPMDSDTVASSDSESDILLGILDKLDPVMFFKCPSPESASLEELPEVYPEGPSSLPASLSLSVGTSSAKLEAINELIRFDHVYTKPLVLEIPSETESQTNVVVKIEEAPLSSSEEDHPEFIVSVKKEPLEDDFIPELGISNLLSSSHCLRPPSCLLDAHSDCGYEGSPSPFSDMSSPLGTDHSWEDTFANELFPQLISV
- UPRE reporter activity ([3]; in the absence of treatment): greatly increased reporter activity
